According to patent US11819489B2 (priority 2017, dated 2023):
Where two headings read alike, the source gives them in different places.

Columns and labels:
K562 cells [1] = assay: cells; settings: Homo sapiens, K562, 24 h
HL-60 cells [2] = assay: cells; settings: Homo sapiens, HL-60, 24 h
KARPAS 45 cells [3] = assay: cells; settings: Homo sapiens, 24 h
HepG2 cells [4] = assay: cells; settings: Homo sapiens, HepG2, 24 h
[5] = tested on: Chinese hamster (CH) solid tumour cells; assay: cells; settings: Cricetulus griseus, 24 h
[6] = tested on: human peripheral blood mononuclear cells (hPBMC); assay: cells; settings: PBMC, 24 h
in vitro [7] = settings: human
in vitro [8] = settings: Chinese hamster
K562 cells [9] = assay: Cellular As uptake, K562 cells; assay type: cell-based, human; settings: K562, 24-h treatment, 1.5 μM As
Experimental: (§1) FIG. 24 is a graphical summary of the cellular As concentrations associated with the specified cell lines following 24-h treatment (1.5 μM As). The results are represented as the mean and standard deviation of triplicate samples.
(§2) FIG. 24 summarises the cellular As concentrations associated with the different cell types following 24-h treatment with the various As compounds (1.5 μM As). The leukemia cell lines, K562, HL-60, Kasumi-1 and KARPAS 45, are depicted in red (lighter of the filled in blocks), and the non-leukemia cell types are depicted in black (darkest shading), with the cancerous adherent cells, HepG2, in the diagonal stripes, and the normal cells, hPBMC, in solid black.

HL-60 cells [10] = assay: Cellular As uptake, HL-60 cells; assay type: cell-based, human; settings: HL-60, 24-h treatment, 1.5 μM As
Experimental: as §1, §2

Kasumi-1 cells [11] = assay: Cellular As uptake, Kasumi-1 cells; assay type: cell-based, human; settings: Kasumi-1, 24-h treatment, 1.5 μM As
Experimental: as §1, §2

KARPAS 45 cells [12] = assay: Cellular As uptake, KARPAS 45 cells; assay type: cell-based, human; settings: 1.5 μM As
Experimental: as §1, §2

HepG2 cells [13] = assay type: cell-based, human
hPBMC = assay: Cellular As uptake, hPBMC; assay type: cell-based, human; settings: 24-h treatment, 1.5 μM As
Experimental: as §1, §2

K562 cells [14] = tested on: K562 cells
KARPAS 45 cells [15] = tested on: KARPAS 45 cells
[16] = tested on: human peripheral blood mononuclear cells (hPBMC)
Kasumi-1 cells [17] = assay: cells; settings: Homo sapiens, Kasumi 1, 24 h

Structure (SMILES)	IC50 (K562 cells [1])	viability at 1000 µM (K562 cells [1]; read-out: K562 cells still viable)	IC50 (HL-60 cells [2])	IC50 (KARPAS 45 cells [3])	IC50 (HepG2 cells [4])	IC50 [5]	IC50 [6]	viability (in vitro [7])	viability (in vitro [8])	cellular As concentration (K562 cells [9])	cellular As concentration (HL-60 cells [10])	cellular As concentration (Kasumi-1 cells [11])	cellular As concentration in KARPAS 45 cells, times more than in HepG2 cells (KARPAS 45 cells [12]; 24-h treatment)	cellular As concentration (KARPAS 45 cells [12]; KARPAS 45, 24-h treatment)	cellular As concentration (HepG2 cells [13])	cellular As concentration (hPBMC)	IC50 (K562 cells [14])	IC50 (KARPAS 45 cells [15])	IC50 [16]	IC50 (Kasumi-1 cells [17])
CC(=O)Nc1cc([As](=O)(O)O)ccc1O [Acetarsol]	> 1000 µM	60.5%	> 1000 µM	> 1000 µM	> 1000 µM	> 1000 µM	> 1000 µM	~100%	~100%	–	–	–	–	–	–	–	–	–	–	–
O=[As]O [Arsenite, Sodium meta-arsenite]	18.6 ± 0.49 µM	–	20 ± 1 µM	66.2 ± 2.6 µM	89 ± 1 µM	26.1 ± 0.8 µM	40.1 ± 7.7 µM	–	–	< 4×10^−14 g/cell	< 4×10^−14 g/cell	< 4×10^−14 g/cell	2.2 times	< 4×10^−14 g/cell	< 4×10^−14 g/cell	< 4×10^−14 g/cell	18.6 ± 0.5 µM	66 ± 3 µM	40 ± 8 µM	61.2 ± 0.6 µM
